The values that follow come from patent publication US8232263B2, “17,20(Z)-dehydro vitamin D analogs and their uses” (Wisconsin Alumni Research Foundation, priority 2004, dated 2012).

Entries after “also recorded” stand apart in the source; their conditions may differ.

The nature of test [1]: Bone calcium mobilization (serum calcium) in vitamin D-deficient rats. The test is classed as in vivo, Sprague-Dawley rats. On the procedure:
(§1) Male, weanling Sprague-Dawley rats were placed on Diet 11 (Suda et al, J. Nutr. 100:1049, 1970) (0.47% Ca)+vitamins AEK for one week followed by Diet 11 (0.02% Ca)+vitamins AEK for 3 weeks. The rats were then switched to the same diet containing 0.47% Ca for one week followed by two weeks on the same diet containing 0.02% Ca. Dose administration began during the last week on 0.02% calcium diet. Four consecutive ip doses were given approximately 24 hours apart. Twenty-four hours after the last dose, blood was collected from the severed neck and the concentration of serum calcium determined by atomic absorption spectrometry as a measure of bone calcium mobilization. The first 10 cm of the intestine was also collected for intestinal calcium transport analysis using the everted gut sac method.
(§2) Antagonism was tested by administering a combination of 1,25(OH)2D3 and the compound to the animal simultaneously.

In test [2] the test system is Human promyelocytic leukemia (HL60) cells. As to the kind of experiment: HL-60 differentiation (nitro blue tetrazolium reduction). In kind it is cell-based. The note with it: FIG. 2; for EC50: HL60 cells, four days after treatment. On the procedure: The study drugs were dissolved in ethanol and the concentrations determined using UV spectrophotometry. Serial dilutions were prepared so that a range of drug concentrations could be tested without changing the final concentration of ethanol (≦0.2%) present in the cell cultures.
Human promyelocytic leukemia (HL60) cells were grown in RPMI-1640 medium containing 10% fetal bovine serum. The cells were incubated at 37° C. in the presence of 5% CO2.
HL60 cells were plated at 1.2×10^5 cells/ml. Eighteen hours after plating, cells in duplicate were treated with drug. Four days later, the cells were harvested and a nitro blue tetrazolium reduction assay was performed (Collins et al., 1979; J. Exp. Med. 149:969-974). The percentage of differentiated cells was determined by counting a total of 200 cells and recording the number that contained intracellular black-blue formazan deposits. Verification of differentiation to monocytic cells was determined by measuring phagocytic activity (data not shown).

The test system of test [3] is 24-hydroxylase (24Ohase) gene promoter in ROS 17/2.8 (bone) cells. As to the kind of experiment: In vitro transcription assay (luciferase reporter). The test is classed as cell-based. The note with it: FIG. 3; for EC50: ROS 17/2.8 cells, 24Ohase promoter-luciferase, sixteen hours after dosing, read-out: EC50, transcriptional activity in bone cells. The procedure:
Transcription activity was measured in ROS 17/2.8 (bone) cells that were stably transfected with a 24-hydroxylase (24Ohase) gene promoter upstream of a luciferase reporter gene (Arbour et al., 1998). Cells were given a range of doses. Sixteen hours after dosing the cells were harvested and luciferase activities were measured using a luminometer. RLU=relative luciferase units.
A general note: Reporter assays use an easily measured gene product as a stand-in for the process of interest.

Test [4] is described as follows: Intestinal calcium transport, everted gut sac method, in vitamin D-deficient rats. In kind it is in vivo, Sprague-Dawley rats. The note with it: VIT-III 260, 2340 or 7020 pmol/day versus 1,25(OH)2D3 260 pmol/day, FIG. 5. On the procedure:
as §1, §2

Test [5] has as its target T1, full-length recombinant rat vitamin D receptor (Rattus norvegicus, UniProt P13053).
T1 construct: Full-length recombinant rat receptor was expressed in E. coli BL21 (DE3) Codon Plus RIL cells; histidine tag (C); made in house; host or cells: E. coli BL21 (DE3) Codon Plus RIL
T1 sequence (P13053 1-423): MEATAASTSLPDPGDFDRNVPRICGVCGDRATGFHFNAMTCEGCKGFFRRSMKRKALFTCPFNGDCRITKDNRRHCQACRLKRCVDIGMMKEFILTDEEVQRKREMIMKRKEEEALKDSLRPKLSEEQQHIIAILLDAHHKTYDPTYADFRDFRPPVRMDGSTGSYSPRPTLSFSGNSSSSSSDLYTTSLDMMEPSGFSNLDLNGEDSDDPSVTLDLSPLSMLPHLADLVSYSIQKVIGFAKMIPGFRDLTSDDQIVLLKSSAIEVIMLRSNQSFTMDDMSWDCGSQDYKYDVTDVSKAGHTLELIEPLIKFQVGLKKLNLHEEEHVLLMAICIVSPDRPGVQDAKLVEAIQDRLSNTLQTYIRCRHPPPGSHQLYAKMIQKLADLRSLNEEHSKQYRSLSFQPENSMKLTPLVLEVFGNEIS
Description: Vitamin D receptor binding, competition with [3H]-1,25(OH)2D3. The note with it: FIG. 1. On the procedure: Full-length recombinant rat receptor was expressed in E. coli BL21 (DE3) Codon Plus RIL cells and purified to homogeneity using two different column chromatography systems. The first system was a nickel affinity resin that utilizes the C-terminal histidine tag on this protein. The protein that was eluted from this resin was further purified using ion exchange chromatography (S-Sepharose Fast Flow). Aliquots of the purified protein were quick frozen in liquid nitrogen and stored at −80° C. until use. For use in binding assays, the protein was diluted in TEDK50 (50 mM Tris, 1.5 mM EDTA, pH7.4, 5 mM DTT, 150 mM KCl) with 0.1% Chaps detergent. The receptor protein and ligand concentration was optimized such that no more than 20% of the added radiolabeled ligand was bound to the receptor.
Radiolabeled and unlabeled ligands were added to 100 mcl of the diluted protein at a final ethanol concentration of ≦10%, mixed and incubated overnight on ice to reach binding equilibrium. The following day, 100 mcl of hydroxylapatite slurry (50%) was added to each tube and mixed at 10-minute intervals for 30 minutes. The hydroxylapaptite was collected by centrifugation and then washed three times with Tris-EDTA buffer (50 mM Tris, 1.5 mM EDTA, pH 7.4) containing 0.5% Titron X-100. […] Total binding was determined from the tubes containing only radiolabeled ligand.

Usually EC50 stands for the concentration giving half of the maximal effect. Take `C=C1/C(=C\C=C2/CCC[C@]3(C)[C@@H]([C@H](C)CCCC(C)(C)O)CC[C@@H]23)C[C@@H](O)C[C@@H]1O` [1α,25-dihydroxyvitamin D3, reference compound]: in test [1] (native hormone at the dosage tested, FIG. 4), the serum calcium levels result is reported as “increased serum calcium levels”. The results for the EC50 in test [2] and in test [3] were 1.3 nM and 0.29 nM, respectively.

What is called Ki is a dissociation constant, usually derived from enzyme kinetics or from competition with a known ligand. On to `C=C1[C@H](O)CC(=C/C=C2\CCC[C@]3(C)/C(=C(/C)CCCC(C)(C)O)CC[C@@H]23)C[C@H]1O` [VIT-III, 17(Z)-1α,25-dihydroxy-17(20)-dehydro-2-methylene-19-norvitamin D3], for which the “intestinal calcium transport activity as compared to 1,25(OH)2D3” value in test [4] is on record as “significant increase in intestinal calcium transport activity; also recorded: relatively high activity”. The “binding to the receptor as compared to 1,25-(OH)2D3” value in test [5] (full length recombinant rat VDR) is listed as “bound equally well”. Besides, in test [5] (full-length recombinant rat VDR), the Ki was 0.05 nM. Moreover, the “mobilization of bone calcium (serum calcium)” value in test [1] (260 pmol/day for 4 consecutive days) was “significant mobilization of bone calcium”; in test [1] (2340 pmol/day and then 7020 pmol/day) it was “progressively increasing serum calcium levels well above the effects seen with 1,25(OH)2D3”. In test [2], the “HL-60 cell differentiation potency as compared to 1,25(OH)2D3” value is “as potent as 1,25(OH)2D3”. The EC50 stood at 0.37 nM in test [2] (Homo sapiens, HL-60, 96 h) and 0.0044 nM in test [3]. Moreover, in test [3], the “transcriptional activity in bone cells as compared to 1α,25-dihydroxyvitamin D3” value was “about the same transcriptional activity”.
